Several values for one entry are separate records, joined by “and”; a condition that tells them apart may be missing. Equal values may be shown once. Entries after “also recorded” stand apart in the source; their conditions may differ. Read-outs that look alike come from different tables or passages of the source.
Experiments:
hNav1.1 [1] = target: T1, hNav1.1 (Homo sapiens, UniProt P35498); assay: cell-based; type: cell-based
Nav1.6 = details: cited from earlier work
Nav1.7 = details: cited from earlier work
hNav1.1 [2] = target: T1, hNav1.1; type: cell-based
hNav1.1 [3] = target: T1, hNav1.1; type: cell-based; remark: listed apart in the source
hNav1.1 [4] = target: T1, hNav1.1; type: cell-based; remark: listed apart in the source
hNav1.1 [5] = target: T1, hNav1.1
Nav1.1 = details: cited from earlier work

COc1ccc(C(=O)O[C@H]2CC[C@@]3(C)[C@@H]4CC[C@H]5[C@]6(O)C[C@H](O)[C@@]7(O)[C@@H](CN8C[C@@H](C)CC[C@H]8[C@@]7(C)O)[C@]6(O)C[C@@]53O[C@]24O)cc1OC [veratridine]
fluorescence signal relative to the maximum fluorescence signal (hNav1.1 [1]): approximately 80%
EC50 (hNav1.1 [1]; EC50): ~24 µM and 24 µM
peak amplitude of the sodium current (Nav1.6): enhanced
peak current (Nav1.6): suppressed
EC50 (Nav1.7; read-out: EC50, tail and sustained currents): 9.53 µM
IC50 (Nav1.7; read-out: IC50, inhibitory effect on the peak current): 18.4 µM

C=C1[C@@H](O)[C@@H]2O[C@]3(CC[C@H](/C=C/[C@@H](C)[C@@H]4CC(C)=C[C@@]5(O[C@H](C[C@@](C)(O)C(=O)O)CC[C@H]5O)O4)O3)CC[C@H]2O[C@@H]1[C@@H](O)C[C@H](C)[C@H]1O[C@@]2(CC[C@H]1C)OCCC[C@H]2C [DTX1, dinophysistoxin 1]
fluorescence signal in agonist mode concentration-response (hNav1.1 [1]): no significant increase
fluorescence intensity stimulated by 30 μM veratridine, inhibition mode concentration-response (hNav1.1 [2]): not significantly inhibited
agonist activity in initial screening (hNav1.1 [3]): did not exhibit any potential agonist or inhibitor activity
inhibitory effect in initial screening (hNav1.1 [4]): no significant inhibition; also recorded: did not exhibit any potential agonist or inhibitor activity

NC1=N[C@H](O)[C@H]2[C@H]3O[C@]4(O)O[C@@H]([C@@H](O)[C@@]2(N1)[C@@H]4O)[C@]3(O)CO [TTX, tetrodotoxin]
IC50 (hNav1.1 [2]): 0.0184 µM
inhibition of the channel-opening effect of 30 μM veratridine (hNav1.1 [2]): almost completely inhibited
suppression of hNav1.1 current signal (hNav1.1 [5]): almost completely suppressed
IC50 (hNav1.1 [5]; read-out: IC50 determined by patch clamp): 0.00327 µM and ~0.00327 µM

Reference: paper PMC11943507 (Marine Drugs, 2025)
